Read-outs that look alike come from different tables or passages of the source.
What was measured:
Format in all cases: cell-based, human
UBE3A-AS = UBE3A-AS steady state RNA (qRT-PCR) in glutamatergic iPSC-derived neurons; settings: for 30 μM (Mean), normalized UBE3A-AS RNA level relative to vehicle / Emax Estimate (normalized UBE3A-AS RNA level relative to vehicle): 14 DIV to 20 DIV
Method: (§1) ASO-4 and ASO-6.1 were also examined in glutamatergic iPSC-derived neurons. Glutamatergic iPSC-derived neurons were treated at 14 DIV with a 10-point ½ log dose response curve of ASO-4 and ASO-6.1 [1 nM, 3 nM, 10 nM, 30 nM, 100 nM, 300 nM, 1 μM, 3 μM, 10 μM, and 30 μM (n=3)]. At 20 DIV, the IC50 and Emax of each ASO was estimated as described above (FIG. 5E-F and Table 15).
(§2) GABAergic and glutamatergic induced pluripotent stem cell (iPSC) derived neural precursor cells (NRC-100-010-001 and GNC-301-030-001, Cellular Dynamics International, Madison Wis.) were differentiated into neurons according to the manufactures protocol. Briefly, neural precursor cells were thawed and resuspended in chemically defined medium and added to sterile-culture plates coated with poly-D-lysine and laminin. The medium was replaced 24 hr after plating and then one-half of the medium was replaced every 3-5 days afterwards.
For cultured iPSC-derived neurons, RNA isolation and cDNA synthesis were performed using the Cell-to-CT kit (Thermo Fisher Scientific) in a lysate volume of 55 μl.
The steady state RNA levels of target transcripts were measured using TaqMan quantitative reverse-transcription PCR (qRT-PCR) assays. Total reaction volume was 10 uL, including 2 μl of cDNA, 1× Gene Expression Master mix (4369016, Thermo Fisher Scientific, Waltham, Mass.), and 1× TaqMan primer assay (Thermo Fisher Scientific). Cycling conditions were 2 minutes at 50° C., 10 minutes at 95° C., and 40 cycles of 15 seconds at 95° C. and 1 minute at 60° C., with readings taken at the 60° C. step of every cycle. Reactions were run on a BIO-RAD T1000 CFX96 thermocycler (Bio-Rad Laboratories, Hercules Calif.), with internal control (PPIA, Hs99999904_m1, Thermo Fisher Scientific) and target [UBE3A-AS, Hs01372957_m1; SNORD116-11, Hs04275268_gH; SNORD115, Hs04275288_gH; IPW, Hs03455409_s1; SNORD109A/B, AP47WVR (Thermo Fisher Scientific); UBE3A: forward […] (SEQ ID NO:500); reverse: […] (SEQ ID NO:501); and, probe: […] (SEQ ID NO:502)] reactions performed together. Data was retrieved and analyzed with the BIORAD CFX Maestro software (Bio-Rad Laboratories). Samples with internal control Cq values ≥30 were filtered. Quality of data was visually inspected to identify discrepancies between technical and/or plate replicates. Measurements for inferential statistics and descriptive statistics consist of ΔΔCq values (2^−ΔΔCq=2^−(Cq[target]−Cq[internal control])−(Cq[target]−Cq[internal control])).

UBE3A = UBE3A steady state RNA (qRT-PCR) in glutamatergic iPSC-derived neurons; settings: 14 DIV to 20 DIV, 10-point dose curve
Method: as §1
as §2, with “afterwards. […]” for “afterwards.”
The steady state RNA levels of target transcripts were measured using TaqMan quantitative reverse-transcription PCR (qRT-PCR) assays. […] Cycling conditions were 2 minutes at 50° C., 10 minutes at 95° C., and 40 cycles of 15 seconds at 95° C. and 1 minute at 60° C., with readings taken at the 60° C. step of every cycle. […] Data was retrieved and analyzed with the BIORAD CFX Maestro software (Bio-Rad Laboratories). […]

SNRPN = assay: RNA-sequencing of Angelman syndrome iPSC neurons: SNRPN; settings: 30 μM; six days post-treatment; RNA-seq
Method: RNA was isolated using Qiagen RNAeasy Plus (74136, Qiagen, Hilden, Germany). RNA concentration was determined using Qubit Fluorometric Quantitation (Thermo Fisher Scientific) and RNA quality was assessed using a 4200 Agilent TapeStation (Agilent, Santa Clara, Calif.). RNA-sequencing libraries were generated using the Illumina TruSeq Stranded Total RNA kit (20020597, Illumina, Inc., San Diego, Calif.) according to the manufacturer's protocol. 75 base-pair paired-end sequencing was performed using a NextSeq 500 (IIlumina, San Diego, Calif.) at the Texas A&M Institute for Genome Sciences and Society Genomics core. Raw sequencing reads were processed using CASAVA. The resulting FASTQ sequences were examined using FASTQC. […]
To determine whether ASO-4.4.PS.L and ASO-6.1.PO-1.O affect the levels of RNA transcripts encoded by the PWS polycistronic transcript, RNA-sequencing was performed on AS iPS cells treated with each ASO and the steady state RNA levels of SNURF, SNRPN, the SNORD116 host-gene transcript (SNHG116), the SNORD116 snoRNAs, IPW, the SNORD115 host-gene transcript (SNHG115), the SNORD115 snoRNAs, and UBE3A-AS were quantified. UBE3A steady state RNA levels were also measured. […]

[1] = parallel model, 4 Parameter logistic, read-out: IC50 (M), UBE3A-AS
[2] = treated 14 DIV, RNA 20 DIV, 10-point dose curve, full model, 4-parameter logistic (Hill), read-out: IC50 Estimate, UBE3A-AS

Substance | 30 μM (Mean), normalized UBE3A-AS RNA level relative to vehicle (UBE3A-AS) | Emax Estimate (normalized UBE3A-AS RNA level relative to vehicle) (UBE3A-AS; 4-parameter logistic (Hill)) | IC50 (UBE3A-AS; [1]) [M] | Relative Potency (UBE3A-AS; parallel model, relative to ASO-4 = 1) | IC50 (UBE3A-AS; [2]) [M] | effect on UBE3A RNA levels (in words) (UBE3A) | Difference, SNRPN RNA level relative to vehicle (SNRPN)
U^O*A^O*G^O*A^O*A^O*t*g*g*c*a*c*a*t*c*t*C^O*U^O*U^O*G^O*G^O [ASO-4] | 0.17 | −1.45 | 3.06e-06 | 1 | 0.000121 | increased UBE3A RNA levels in a dose dependent manner | 
C^O*U^O*G^O*G^O*t*g*t*c*a*a*c*a*a*g*C^O*C^O*A^O*A^O [ASO-6.1] | 0.04 | −0.27 | 7.8e-07 |  | 2.44e-07 | increased UBE3A RNA levels in a dose dependent manner | 
C^O*U^O*G^O*G^O-t*g*t*c*a*a*c*a*a*g-C^O*C^O*A^O*A^o [ASO-6.1.PO-1.O] |  |  |  |  |  |  | 0.03
A^L*G^L*A^L*a*t*g*g*c*a*c*a*t*c*t*5mC^L*T^L*T^L*G^L (NNNATGGCACATCTNNNN; LNA gapmer, PS, 5-methylcytosine, chemistry not fully specified) [ASO-4.4.PS.L] |  |  |  |  |  |  | −0.02
